Experimental data: US10519446B2, “Organic compounds to treat hepatitis B virus” (priority 2013, dated 2019)
Like-named read-outs stand apart in the source and are kept apart here.

Key:
HBV = experiment: Efficacy of HBV RNAi agents in HepG2.2.15 cells in vitro (sAg KD); format: cell-based, Hepatitis B Virus; details: for Max % KD, EXPERIMENT 1 / Max % KD, EXPERIMENT 2: percent knockdown; for Percent sAg remaining at maximum knockdown: percent residual gene activity
Experimental: Table 9. Efficacy of HBV RNAi agents.
The efficacy of various HBV RNAi agents was tested in HepG2.2.15 cells in vitro. 10 μM was used. […] It is noted that, due to the nature of the HepG2.2.15 cell line, it is difficult to achieve greater than 50% knockdown.

FVII (Factor VII) = experiment: RNA interference against FVII by 19-mer siRNAs with 3′ end caps (FIG. 2); set-up: species or system mouse; details: mF7-III 19-mer blunt-ended, A12S17
[1] = Serum stability of siRNAs with 3′ end caps in human serum; format: in vitro ADME; details: 100% human serum; 37° C.; up to 24 h; gel, SYBR gold
[2] = Serum stability of siRNAs with 3′ end caps in mouse serum; format: in vitro ADME; details: 100% mouse serum; 37° C.; up to 24 h; gel, SYBR gold
[3] = Experiment 2, HepG2.2.15 cells, nM printed only at the Experiment 1 and AVERAGE EC50 heads, read-out: EC50, EXPERIMENT 2
[4] = HepG2.2.15 cells in vitro, Experiment 1, read-out: EC50 (nM), EXPERIMENT 1
[5] = average of Experiments 1 and 2, read-out: EC50 (nM), AVERAGE

Compound | Max % KD, EXPERIMENT 1 (HBV; Experiment 1, HepG2.2.15 cells) | Percent sAg remaining at maximum knockdown (HBV; Experiment 1, HepG2.2.15 cells) | EC50 (HBV; [3]) | Max % KD, EXPERIMENT 2 (HBV; Experiment 2, HepG2.2.15 cells) | Percent sAg remaining at maximum knockdown (HBV; Experiment 2, HepG2.2.15 cells) | EC50 (HBV; [4]) | Max % KD, AVERAGE (HBV; average of Experiments 1 and 2) | EC50 (HBV; [5]) | RNA interference against FVII (FVII (Factor VII)) | stability in human serum [1] | stability in mouse serum [2]
3: "HBV RNAi agents numbered 1 to 10"; "The RNAi agents used are listed in Table 8E" (18-mer format) (sense CCAUACUGCGGAACUCCUA; antisense UAGGAGUUCCGCAGUAUGG; chemistry not given here) [Number 3] | 49.8% | 50.2% | 0.016 nM | 38.7% | 61.3% | 0.111 nM | 44.25% | 0.06 nM | – | – | –
4: "HBV RNAi agents numbered 1 to 10"; "The RNAi agents used are listed in Table 8E" (18-mer format) (sense GAGGCUGUAGGCAUAAAUU; antisense AAUUUAUGCCUACAGCCUC; chemistry not given here) [Number 4] | 43.3% | 56.7% | 0.056 nM | 48.6% | 51.4% | 0.017 nM | 45.95% | 0.04 nM | – | – | –
5: "One sequence used was designated siHBV_1599_18mer_CAM, and corresponds to Number 5 in Table 8E" (sense CCGUGUGCACUUCGCUUCA; antisense UGAAGCGAAGUGCACACGG; chemistry not given here) | 41.3% | 58.7% | 0.013 nM | 37.8% | 62.2% | 0.127 nM | 39.55% | 0.07 nM | – | – | –
6: "HBV RNAi agents numbered 1 to 10"; "The RNAi agents used are listed in Table 8E" (18-mer format) (sense GGCUGUAGGCAUAAAUUGG; antisense CCAAUUUAUGCCUACAGCC; chemistry not given here) [Number 6] | 37.3% | 62.7% | 0.13 nM | 39% | 61% | 0.008 nM | 38.15% | 0.07 nM | – | – | –
7: "HBV RNAi agents numbered 1 to 10"; "The RNAi agents used are listed in Table 8E" (18-mer format) (sense GCUGUAGGCAUAAAUUGGU; antisense ACCAAUUUAUGCCUACAGC; chemistry not given here) [Number 7] | 41.5% | 58.5% | 0.409 nM | 40.3% | 59.7% | 0.038 nM | 40.9% | 0.22 nM | – | – | –
8: "HBV RNAi agents numbered 1 to 10"; "The RNAi agents used are listed in Table 8E" (18-mer format) (sense CAGCAAUGUCAACGACCGA; antisense UCGGUCGUUGACAUUGCUG; chemistry not given here) [Number 8] | 37.5% | 62.5% | 0.177 nM | 57.8% | 42.2% | 0.025 nM | 47.65% | 0.1 nM | – | – | –
9: "HBV RNAi agents numbered 1 to 10"; "The RNAi agents used are listed in Table 8E" (18-mer format) (sense GGAGGCUGUAGGCAUAAAU; antisense AUUUAUGCCUACAGCCUCC; chemistry not given here) [Number 9] | 48.8% | 51.2% | 0.67 nM | 50% | 50% | 0.131 nM | 49.4% | 0.4 nM | – | – | –
10: "HBV RNAi agents numbered 1 to 10"; "The RNAi agents used are listed in Table 8E" (18-mer format) (sense GAGAUUAGGUUAAAGGUCU; antisense AGACCUUUAACCUAAUCUC; chemistry not given here) [Number 10] | 57.3% | 42.7% | 0.437 nM | 50.9% | 49.1% | 0.066 nM | 54.1% | 0.25 nM | – | – | –
11: "An 18-mer ... with the sequences of Number 11E in Table 10"; "an additional HBV RNAi agent, HBV 279" (sense GGUUCUUCUGGAUUAUCAA; antisense UUGAUAAUCCAGAAGAACC; chemistry not given here) | 65.39% | 34.61% | 0.105 nM | 54% | 46% | 0.039 nM | 59.695% | 0.07 nM | – | – | –
12: "Twelve of the best HBV RNAi agents identified are listed below, in various formats, in Tables 8A-8E, 9 and 10" (sense GGACUUCUCUCAAUUUUCU; antisense AGAAAAUUGAGAGAAGUCC; chemistry not given here) [Number 12] | 36.89% | 63.11% | – | – | – | 0.093 nM | 36.89% | 0.093 nM | – | – | –
C1C2CC3CC1CC(C2)C3 [Adamantane] | – | – | – | – | – | – | – | – | allow the RNAi agent to perform RNA interference | – | –
c1ccc(-c2ccccc2)cc1 [Biphenyl] | – | – | – | – | – | – | – | – | allow the RNAi agent to perform RNA interference | increased stability | increased stability
OCCOCCOCCO [Triethylene glycol] | – | – | – | – | – | – | – | – | allow the RNAi agent to perform RNA interference | – | –
OCCOCCOCCO [glycol, triethylene glycol] | – | – | – | – | – | – | – | – | – | increased stability | increased stability
C[C@H](CCC(=O)O)[C@H]1CC[C@H]2[C@@H]3CC[C@@H]4C[C@H](O)CC[C@]4(C)[C@H]3CC[C@]12C [lithochol, lithocholic acid] | – | – | – | – | – | – | – | – | – | less stable | increased stability
